How the values were obtained:
Assay type in all cases: in vivo, human
[1] = tested on: subjects with active autoantibody-positive SLE; assay: Phase 2b study in SLE: SLE Responder Index 4 (SRI-4) response at week 24; details: for SRI(4) at Week 24, Stratified Difference (%) (95% CI), Iberdomide - Placebo / Percentage of Subjects Who Achieve SRI(4) at Week 24, n/m (%): ITT
Experimental: (§1) The pharmacokinetics, pharmacodynamics (PD), efficacy, and safety of oral iberdomide ((S)-3-[4-({4-[(morpholin-4-yl)methyl]phenyl}methoxy)-1-oxo-1,3-dihydro-2H-isoindol-2-yl]piperidine-2,6-dione-hydrogen chloride (1/1)) were evaluated in a phase 2b study in subjects with active autoantibody-positive SLE.
(§2) Adult SLE patients (N=288) with a ≥6-month history of SLE and SLE Disease Activity Index (SLEDAI 2K) ≥6 were randomized to placebo (n=83) or iberdomide 0.15 mg QD (n=42), 0.3 mg QD (n=82), or 0.45 mg QD (n=81). Clinical response was determined by the SLE Responder Index 4 (SRI-4) at week 24 for all patients and within pre-specified biomarker-enriched subsets based on expression of Ikaros, Aiolos, the Type 1 IFN signature (IFI27, IFI44, IFI44L, RSAD2), and other gene modules measured from fingerstick blood collected at baseline (Modular Immune Profile Test, DxTerity Diagnostics, Inc.). The primary objective of the study was to evaluate the clinical efficacy of 3 doses of iberdomide (0.45 mg once per day [QD], 0.30 mg QD, or 0.15 mg QD) compared to placebo, for the treatment of active SLE using the SLE Responder Index at Week 24.

[2] = tested on: subjects with active autoantibody-positive SLE; assay: Phase 2b study in SLE: Lupus Low Disease Activity State (LLDAS) response; details: for percentages of LLDAS responders: Week 24; for LLDAS response at Week 24, stratified difference from placebo / percentage of subjects who achieved LLDAS response at Week 24: overall subjects; for percentage of subjects who achieved LLDAS response at Week 24: NRI, ITT
Experimental: as §1, §2
The percentages of LLDAS responders for key mRNA and DNA subgroups were as follows: • IKZF1 high: 23.4%, 17.0%, and 14.3% for 0.45 mg, 0.30 mg, and 0.15 mg QD iberdomide, respectively, compared with 12.5% for placebo. • IKZF3 high: 27.8%, 9.4%, 14.3%, respectively, compared with 11.1% for placebo. • Type 1 IFN module high: 17.5%, 14.3%, and 24.0%, respectively, compared with 8.3% for placebo. • Ikaros IFN module high: 16.1%, 14.3%, and 20.0%, respectively, compared with 8.2% for placebo. Drug Dose, Drug Concentration, and Relationship to Response

[3] = tested on: subjects with active autoantibody-positive SLE; assay: Phase 2b study in SLE: BILAG-Based Combined Lupus Assessment (BICLA) response
Experimental: as §1, §2
The treatment comparison with placebo (33.3%) for BICLA was larger in the subgroup of subjects with baseline IKZF3 high, but only for 0.45 mg QD iberdomide (52.0%) and 0.15 mg QD iberdomide (41.7%).

[4] = tested on: subjects with active autoantibody-positive SLE; assay: Phase 2b study in SLE: improvement of ≥50% from baseline in CLASI activity score; details: for percentage of subjects with improvement of ≥50% from baseline in CLASI activity score: baseline CLASI ≥8, Week 24
Experimental: as §1, §2
CLASI activity score at Week 24 was analyzed. Results for improvement of ≥50% from baseline in CLASI activity score at Week 24 were observed. Results are described as follows for overall subjects at each time point and for subgroups based on baseline characteristics and on mRNA and DNA expression as follows: […]

[5] = Type 1 IFN: High at baseline, 0.15 mg QD
[6] = Type 1 IFN: High at baseline, 0.30 mg QD
[7] = Type 1 IFN: High at baseline, 0.45 mg QD
[8] = Ikaros IFN module high, 0.15 mg QD
[9] = Ikaros IFN module high, 0.30 mg QD
[10] = Ikaros IFN module high, 0.45 mg QD
[11] = Type 1 IFN module high, 0.15 mg QD
[12] = Type 1 IFN module high, 0.30 mg QD
[13] = Type 1 IFN module high, 0.45 mg QD

O=C1CC[C@H](N2Cc3c(OCc4ccc(CN5CCOCC5)cc4)cccc3C2=O)C(=O)N1 [iberdomide, (S)-3-[4-({4-[(morpholin-4-yl)methyl]phenyl}methoxy)-1-oxo-1,3-dihydro-2H-isoindol-2-yl]piperidine-2,6-dione-hydrogen chloride (1/1)]
SRI(4) at Week 24, Stratified Difference (%) (95% CI), Iberdomide - Placebo ([1]; T cell Exhaustion: Low at baseline, 0.45 mg QD): 21.9 (4.30, 37.77) %
Percentage of Subjects Who Achieve SRI(4) at Week 24, n/m (%) [1, 5]: 15/25 (60.0) %
SRI(4) at Week 24, Stratified Difference (%) (95% CI), Iberdomide - Placebo [1, 5]: 25.6%
SRI(4) at Week 24, Stratified Difference (%) (95% CI), Iberdomide - Placebo ([1]; Type 1 IFN: High at baseline, 0.15 mg QD, listed as Iberdomide): 25.6 (1.54, 46.35) %
Percentage of Subjects Who Achieve SRI(4) at Week 24, n/m (%) [1, 6]: 21/49 (42.9) %
SRI(4) at Week 24, Stratified Difference (%) (95% CI), Iberdomide - Placebo [1, 6]: 10.6 (−8.93, 29.11) %
Percentage of Subjects Who Achieve SRI(4) at Week 24, n/m (%) [1, 7]: 34/57 (59.6) %
SRI(4) at Week 24, Stratified Difference (%) (95% CI), Iberdomide - Placebo [1, 7]: 26.8%
SRI(4) at Week 24, Stratified Difference (%) (95% CI), Iberdomide - Placebo ([1]; Type 1 IFN: High at baseline, 0.45 mg QD, listed as Iberdomide): 26.8 (7.49, 43.54) %
SRI-4 clinical efficacy ([1]; double-negative IFN Low Aiolos Low population, week 24): no clinical efficacy
percentages of LLDAS responders ([2]; IKZF1 high, 0.15 mg QD): 14.3%
percentages of LLDAS responders ([2]; IKZF1 high, 0.30 mg QD): 17.0%
percentages of LLDAS responders ([2]; IKZF1 high, 0.45 mg QD): 23.4%
percentages of LLDAS responders ([2]; IKZF3 high, 0.15 mg QD): 14.3%
percentages of LLDAS responders ([2]; IKZF3 high, 0.30 mg QD): 9.4%
percentages of LLDAS responders ([2]; IKZF3 high, 0.45 mg QD): 27.8%
percentages of LLDAS responders [2, 8]: 20.0%
percentages of LLDAS responders [2, 9]: 14.3%
percentages of LLDAS responders [2, 10]: 16.1%
percentages of LLDAS responders [2, 11]: 24.0%
percentages of LLDAS responders [2, 12]: 14.3%
percentages of LLDAS responders [2, 13]: 17.5%
LLDAS response at Week 24, stratified difference from placebo ([2]; 0.15 mg QD): 6.7%
percentage of subjects who achieved LLDAS response at Week 24 ([2]; 0.15 mg QD): 19.0%
percentage of subjects who achieved LLDAS response at Week 24 ([2]; 0.30 mg QD): 17.1%
LLDAS response at Week 24, stratified difference from placebo ([2]; 0.45 mg QD): 6.9%
percentage of subjects who achieved LLDAS response at Week 24 ([2]; 0.45 mg QD): 19.8%
percentage of subjects who achieved BICLA response at Week 24 ([3]; baseline IKZF3 high, 0.15 mg QD): 41.7%
percentage of subjects who achieved BICLA response at Week 24 ([3]; baseline IKZF3 high, 0.45 mg QD): 52.0%
BICLA response at Week 24, stratified difference from placebo ([3]; overall subjects with baseline BILAG 2004 1A or 2B scores, 0.15 mg QD): 0.3%
percentage of subjects who achieved BICLA response at Week 24 ([3]; overall subjects with baseline BILAG 2004 1A or 2B scores, 0.15 mg QD, NRI, ITT): 37.1%
BICLA response at Week 24, stratified difference from placebo ([3]; overall subjects with baseline BILAG 2004 1A or 2B scores, 0.30 mg QD): −3.6%
percentage of subjects who achieved BICLA response at Week 24 ([3]; overall subjects with baseline BILAG 2004 1A or 2B scores, 0.30 mg QD, NRI, ITT): 33.3%
BICLA response at Week 24, stratified difference from placebo ([3]; overall subjects with baseline BILAG 2004 1A or 2B scores, 0.45 mg QD): 1.0%
percentage of subjects who achieved BICLA response at Week 24 ([3]; overall subjects with baseline BILAG 2004 1A or 2B scores, 0.45 mg QD, NRI, ITT): 37.3%
improvement of ≥50% from baseline in CLASI activity score, stratified difference from placebo ([4]; 0.45 mg QD, Week 8, ITT population using NRI): 14.3%
improvement of ≥50% from baseline in CLASI activity score, stratified difference from placebo ([4]; 0.45 mg QD, Week 12, ITT population using NRI): 12.2%
improvement of ≥50% from baseline in CLASI activity score, stratified difference from placebo ([4]; 0.45 mg QD, Week 16, ITT population using NRI): 18.2%
improvement of ≥50% from baseline in CLASI activity score, stratified difference from placebo ([4]; 0.45 mg QD, Week 20, ITT population using NRI): 12.3%
percentage of subjects with improvement of ≥50% from baseline in CLASI activity score ([4]; IKZF3 high, 0.15 mg QD): 50.0%
percentage of subjects with improvement of ≥50% from baseline in CLASI activity score ([4]; IKZF3 high, 0.30 mg QD): 33.3%
percentage of subjects with improvement of ≥50% from baseline in CLASI activity score ([4]; IKZF3 high, 0.45 mg QD): 77.8%
percentage of subjects with improvement of ≥50% from baseline in CLASI activity score [4, 8]: 54.5%
percentage of subjects with improvement of ≥50% from baseline in CLASI activity score [4, 9]: 52.4%
percentage of subjects with improvement of ≥50% from baseline in CLASI activity score [4, 10]: 63.6%
percentage of subjects with improvement of ≥50% from baseline in CLASI activity score [4, 11]: 66.7%
percentage of subjects with improvement of ≥50% from baseline in CLASI activity score [4, 12]: 52.4%
percentage of subjects with improvement of ≥50% from baseline in CLASI activity score [4, 13]: 61.9%
improvement of ≥50% from baseline in CLASI activity score, stratified difference from placebo ([4]; baseline CLASI activity score ≥8, 0.15 mg QD, Week 16): 10.6%
improvement of ≥50% from baseline in CLASI activity score, stratified difference from placebo ([4]; baseline CLASI activity score ≥8, 0.15 mg QD, Week 20): 35.3%
improvement of ≥50% from baseline in CLASI activity score, stratified difference from placebo ([4]; baseline CLASI activity score ≥8, 0.30 mg QD, Week 8): 23.6%
improvement of ≥50% from baseline in CLASI activity score, stratified difference from placebo ([4]; baseline CLASI activity score ≥8, 0.30 mg QD, Week 16): 3.1
improvement of ≥50% from baseline in CLASI activity score, stratified difference from placebo ([4]; baseline CLASI activity score ≥8, 0.45 mg QD, Week 4): 32.0%
improvement of ≥50% from baseline in CLASI activity score, stratified difference from placebo ([4]; baseline CLASI activity score ≥8, 0.45 mg QD, Week 16): 9.4%

Source: patent US12064437B2, “Methods for treating systemic lupus erythematosus and the use of biomarkers as a predictor of clinical sensitivity to therapies” (CELGENE CORPORATION, priority 2020, dated 2024)
